Laboratory results as given in publication PMC7539012, “Hyperphosphorylated tau aggregation and cytotoxicity modulators screen identified prescription drugs linked to Alzheimer's disease and cognitive functions” (Scientific Reports, 2020).
Where a name gives a salt, the structure may show the parent alone. Read-outs that look alike come from different tables or passages of the source.

What was measured:
p-tau = target: T1, p-tau (Homo sapiens, UniProt P10636); assay: p-tau aggregation assay, dose response (ThS fluorescence, inducer-free); assay type: biochemical; details: for effect on p-tau aggregation (16-h net change of ThS fluorescence): 6.25-150 µM benzodiazepine
T1 construct: made in house; host or cells: E. coli (PIMAX system)
T1 sequence (P10636 1-412 isoform P10636-7): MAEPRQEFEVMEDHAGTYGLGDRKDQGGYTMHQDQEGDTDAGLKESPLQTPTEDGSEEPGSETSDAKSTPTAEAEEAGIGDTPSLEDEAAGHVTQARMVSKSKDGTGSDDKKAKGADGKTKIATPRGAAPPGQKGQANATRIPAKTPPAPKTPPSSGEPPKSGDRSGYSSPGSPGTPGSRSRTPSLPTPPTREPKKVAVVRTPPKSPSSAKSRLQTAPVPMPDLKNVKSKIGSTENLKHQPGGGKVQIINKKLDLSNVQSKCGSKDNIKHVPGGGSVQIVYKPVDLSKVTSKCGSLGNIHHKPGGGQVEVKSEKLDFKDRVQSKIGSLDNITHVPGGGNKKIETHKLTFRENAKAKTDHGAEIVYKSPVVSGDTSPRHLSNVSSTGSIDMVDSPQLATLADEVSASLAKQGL
Protocol: Aggregation of 6-µM p-tau under the influence of 30 µM of each of the library compounds or a DMSO vehicle control was monitored in 384-well plates every 10 min for ThS fluorescence changes over 16 h. To assess the quality of the high-throughput p-tau aggregation reactions, we used the T0 and T16hr ThS fluorescence units of no-compound control reactions to calculate the Z′-factor and coefficient of variation (CV), two commonly used criteria for robustness of high-throughput screens (HTS)[62]. A Z′-factor greater than 0.5 and CV smaller than 10% indicate robustness. […] To identify compounds with significant p-tau aggregation modulation, the net change of ThS fluorescence was calculated from all reactions (see Supplemental Table 1 for complete listing).
Aggregation of 6 µM of p-tau was done in the presence of the indicated concentrations of either compound. […] P-tau aggregation reactions with the C291S C322S (C/S) mutant p-tau were done in the presence of the indicated amounts of either compound. Shown are net changes of ThS over 16 h.
Given the tremendous socioeconomical burdens of AD, measures that prevent or delay the onset of the devastating neurodegeneration of AD will be highly impactful. If hyperphosphorylated tau-inflicted neuronal damages are an underpinning for AD and other tauopathies, enhancers of p-tau aggregation (PTAEs) may be risk factors for neurodegeneration. […] Prednicarbate is a synthetic corticosteroid for dermatological use, and carmofur (1-hexylcarbamoyl-5-fluorouracil) is an anti-neoplastic pyrimidine analogue. […] BZDs are among the most widely prescribed medication, in particular to the elderly, for depression and insomnia[70],[71]. We hypothesized that certain BZDs acted as a PTAE to potentiate p-tau aggregation and cytotoxicity. […] We therefore randomly picked nine prescription BZDs for p-tau aggregation assessment (Fig. 6; see Supplemental Fig. 5 for chemical structures). To 6-µM p-tau aggregation reactions, increasing doses of each of these BZDs were added.
Prednicarbate, a synthetic steroid, served as a PTAE control (yellow bars).
The aggregation assays over the course of this project have been done with multi-plate readers from different sources.
A common mix of 6 µM p-tau, 20 mM Tris pH 7.4, 1 mM DTT, and 20 µM ThS was assembled and dispensed to 384-well low-volume plates (10 µl per well) using BioTek EL406 Washer, followed by the addition of 150 nl of the Prestwick Library compounds (final concentration of 30 µM per well) or DMSO in a Beckman Coulter Biomek FX^P workstation. Each plate was covered with an Optical Adhesive Film and incubated at 37 °C for about 10 min. ThS fluorescence was measured every 10 min at 440/490 nm for 16 h by Biotek Synergy Neo Plate Reader. […] The real-time kinetics of ThS signals were collected using Gen5 software.

1N4R p-tau = tested on: T2, 1N4R p-tau; assay: p-tau aggregation modulator screen of 1280-compound library (ThS fluorescence net change over 16 h); assay type: biochemical; parameters: key to PTAI>3SD: *: PTAI>3SD
T2 construct: made in house; host or cells: E. coli (PIMAX system)

[1] = p-tau aggregation modulator screen of 1280-compound library, ThS fluorescence net change
[2] = 1280-compound library screen, ThS fluorescence net change over 16 h

With `O=C1Nc2ccc(Cl)cc2C(c2ccccc2)=NC1O` (centres unmarked) [oxazepam] the “effect on p-tau aggregation (16-h net change of ThS fluorescence)” value (p-tau; 6 µM p-tau) was “did not”.

For `COC(=O)C1=C(C)NC(C)=C(C(=O)OC)C1c1ccccc1[N+](=O)[O-]` [Nifedipine, nifedipine, reference compound], the “PTAI>3SD” value (1N4R p-tau; flag: p-tau aggregation inhibitor, ThS net change more than 3 SD from mean) was “*”, the ThS net change (1N4R p-tau; library screen, ThS fluorescence net change over 16 h with p-tau) was -97 and the EC50 (p-tau; 6 µM p-tau, ThS fluorescence) was 24.3 µM.

In the case of `CCN(CC)CCN1C(=O)CN=C(c2ccccc2F)c2cc(Cl)ccc21` [flurazepam], the “effect on p-tau aggregation (16-h net change of ThS fluorescence)” value (p-tau; 6 µM p-tau) is reported as “enhanced p-tau aggregation in a dose-dependent manner”.

For `CN1C(=O)CN=C(c2ccccc2)c2cc(Cl)ccc21` [diazepam], the “effect on p-tau aggregation (16-h net change of ThS fluorescence)” value (p-tau; 6 µM p-tau) was “enhanced p-tau aggregation in a dose-dependent manner”.

For `CN1C(=O)C(O)N=C(c2ccccc2)c2cc(Cl)ccc21` (centres unmarked) [temazepam], the “effect on p-tau aggregation (16-h net change of ThS fluorescence)” value (p-tau; 6 µM p-tau) was “enhanced p-tau aggregation in a dose-dependent manner”.

In the case of `Oc1c(Cl)cc(Cl)c(Cl)c1Cc1c(O)c(Cl)cc(Cl)c1Cl` [Hexachlorophene, hexachlorophene], the “PTAI>3SD” value (1N4R p-tau) is reported as “*”, the ThS net change (1N4R p-tau) is reported as 74 and the EC50 (p-tau) is reported as 17.8 µM.

In the case of `O=C1CN=C(c2ccccc2)c2cc(Cl)ccc2N1` [nordiazepam], the “effect on p-tau aggregation (16-h net change of ThS fluorescence)” value (p-tau; 6 µM p-tau) is reported as “did not”.

With `CN1C(=O)CN=C(c2ccccc2)c2cc([N+](=O)[O-])ccc21` [nimetazepam] the “effect on p-tau aggregation (16-h net change of ThS fluorescence)” value (p-tau; 6 µM p-tau) was “did not”.

Work on `C=C1C(=O)O[C@H]2[C@H]1CC/C(C)=C/CC[C@@]1(C)O[C@@H]21` [Parthenolide] yielded a ThS net change (1N4R p-tau; p-tau aggregation modulator screen of the compound library, ThS fluorescence net change) of 434.

`OCc1cc(C(O)CNCCCCCCOCCCCc2ccccc2)ccc1O` (centres unmarked) [Salmeterol] gave a ThS net change (1N4R p-tau; [1]) of 358.

With `O=C1CCc2ccc(OCCCCN3CCN(c4cccc(Cl)c4Cl)CC3)cc2N1` [Aripiprazole] the ThS net change (1N4R p-tau; [2]) was 386.

Work on `CCCOc1ccccc1-c1nc2nn[nH]c2c(=O)[nH]1` [Zaprinast] yielded a ThS net change (1N4R p-tau; [1]) of 335.

Work on `NC[C@H]1O[C@H](O[C@H]2[C@H](O)[C@@H](O[C@H]3O[C@H](CO)[C@@H](O)[C@H](N)[C@H]3O)[C@H](N)C[C@@H]2N)[C@H](O)[C@@H](O)[C@@H]1O` [Kanamycin A sulfate] yielded a ThS net change (1N4R p-tau; [1]) of 374.

In the case of `CC(C)(C)NC[C@H](O)COc1cccc2c1CCCC2=O.Cl` [(-) -Levobunolol hydrochloride], the ThS net change (1N4R p-tau; [2]) is reported as 397.

In the case of Lymecycline, the ThS net change (1N4R p-tau) is reported as 312.

Work on `Clc1ccc2c(c1)CCc1cccnc1C2=C1CCNCC1` [Desloratadine] yielded a ThS net change (1N4R p-tau) of 457.
